From ChEMBL document CHEMBL5465560, “Selectivity Literature for EUbOPEN Chemogenomic Library” (2024)

Tests used:
[1] = target: Vascular endothelial growth factor receptor 3 (Homo sapiens, UniProt P35916); assay: Selectivity interaction (KinomeScan (DiscoverX)) EUB0000045b FLT4
[2] = target: Serine/threonine-protein kinase PAK 2 (Homo sapiens) (UniProt Q13177); assay: Selectivity interaction (KinomeScan (DiscoverX)) EUB0000695a PAK2; conditions: at 100 nM
[3] = target: Protein-tyrosine kinase 2-beta (Homo sapiens) (UniProt Q14289); assay: Selectivity interaction (KinomeScan (DiscoverX)) EUB0000666a PTK2B; conditions: at 10 µM
[4] = target: T1, Tyrosine-protein kinase Mer (Homo sapiens) (UniProt Q12866); assay: Selectivity interaction (Kinase screening (Nanosyn)) EUB0000604a MERTK
T1 sequence (whole entry): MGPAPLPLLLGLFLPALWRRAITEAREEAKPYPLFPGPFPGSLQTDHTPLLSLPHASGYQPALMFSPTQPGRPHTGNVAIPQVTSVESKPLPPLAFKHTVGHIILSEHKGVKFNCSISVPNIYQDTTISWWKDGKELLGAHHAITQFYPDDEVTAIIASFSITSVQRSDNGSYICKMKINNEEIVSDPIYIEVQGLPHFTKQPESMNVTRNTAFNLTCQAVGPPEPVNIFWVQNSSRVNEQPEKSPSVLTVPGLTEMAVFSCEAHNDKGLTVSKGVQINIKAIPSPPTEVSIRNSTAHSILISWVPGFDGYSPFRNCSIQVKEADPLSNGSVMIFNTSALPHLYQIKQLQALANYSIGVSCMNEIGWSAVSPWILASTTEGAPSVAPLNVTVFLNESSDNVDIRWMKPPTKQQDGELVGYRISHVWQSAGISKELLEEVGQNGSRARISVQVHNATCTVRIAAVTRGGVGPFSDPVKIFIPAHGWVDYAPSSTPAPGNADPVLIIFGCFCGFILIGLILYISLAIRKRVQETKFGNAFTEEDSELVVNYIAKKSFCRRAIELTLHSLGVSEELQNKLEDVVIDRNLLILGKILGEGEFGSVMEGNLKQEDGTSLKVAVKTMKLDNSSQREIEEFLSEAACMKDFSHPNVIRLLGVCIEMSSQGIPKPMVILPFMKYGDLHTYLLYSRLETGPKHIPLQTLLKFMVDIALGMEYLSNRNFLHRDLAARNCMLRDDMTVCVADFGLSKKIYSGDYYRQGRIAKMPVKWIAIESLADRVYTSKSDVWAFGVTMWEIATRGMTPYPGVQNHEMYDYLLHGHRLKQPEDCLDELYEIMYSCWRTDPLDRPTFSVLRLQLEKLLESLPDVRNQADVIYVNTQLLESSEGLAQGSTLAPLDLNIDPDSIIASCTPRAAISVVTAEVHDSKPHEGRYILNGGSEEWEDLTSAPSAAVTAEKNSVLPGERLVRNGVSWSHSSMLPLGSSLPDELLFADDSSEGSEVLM

Cannabinoid receptor 1 = Cannabinoid receptor 1 (Homo sapiens, UniProt P21554); assay: Selectivity interaction (Cannabinoid CB1 calcium flux assay, agonist and antagonist mode ) EUB0000877a CNR1
[5] = target: Inhibitor of nuclear factor kappa-B kinase subunit alpha (Homo sapiens, UniProt O15111); assay: Selectivity interaction (Kinase panel (Enzyme activity assay)) EUB0000612a CHUK
[6] = tested on: eIF-2-alpha kinase GCN2 (Homo sapiens), Q9P2K8 [S808G]; assay: Selectivity interaction (KinomeScan (DiscoverX)) EUB0000607a EIF2AK4; conditions: at 10 µM
[7] = target: Death-associated protein kinase 2 (Homo sapiens) (UniProt Q9UIK4); assay: Selectivity interaction (KinomeScan (DiscoverX)) EUB0000607a DAPK2; conditions: at 10 µM
[8] = target: Proto-oncogene tyrosine-protein kinase Src (Homo sapiens, UniProt P12931); assay: Selectivity interaction (Kinase panel (DSF assay)) EUB0001558a SRC
[9] = target: AP2-associated protein kinase 1 (Homo sapiens, UniProt Q2M2I8); assay: Selectivity interaction (KinomeScan (DiscoverX)) EUB0000618a AAK1; conditions: at 10 µM
[10] = target: Casein kinase I isoform alpha (Homo sapiens, UniProt P48729); assay: Selectivity interaction (KinomeScan (DiscoverX)) EUB0000655a CSNK1A1; conditions: at 10 µM
[11] = target: T2, Serine/threonine-protein kinase 3 (Homo sapiens) (UniProt Q13188); assay: Selectivity interaction (KinomeScan (DiscoverX)) EUB0000092b STK3; conditions: at 10 µM
T2 sequence (whole entry): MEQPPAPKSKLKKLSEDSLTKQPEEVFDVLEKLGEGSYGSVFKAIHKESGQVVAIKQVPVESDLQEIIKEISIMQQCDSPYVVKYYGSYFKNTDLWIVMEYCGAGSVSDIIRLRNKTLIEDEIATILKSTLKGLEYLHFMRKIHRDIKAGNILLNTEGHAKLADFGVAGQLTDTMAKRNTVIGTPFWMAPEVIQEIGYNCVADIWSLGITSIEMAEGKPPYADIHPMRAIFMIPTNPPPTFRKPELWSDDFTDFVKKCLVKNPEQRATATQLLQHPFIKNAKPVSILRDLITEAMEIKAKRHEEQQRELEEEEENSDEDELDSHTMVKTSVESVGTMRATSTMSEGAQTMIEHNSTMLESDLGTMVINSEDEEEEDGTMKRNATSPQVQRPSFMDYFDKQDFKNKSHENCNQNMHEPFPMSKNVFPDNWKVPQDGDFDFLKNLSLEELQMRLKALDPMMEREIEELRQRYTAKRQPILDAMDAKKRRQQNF

[12] = target: Serine/threonine-protein kinase 32A (Homo sapiens) (UniProt Q8WU08); assay: Selectivity interaction (Ambit KINOMEscan and KiNATiv profiling in Jurkat cells) EUB0000090b STK32A; format: cell-based; conditions: at 1 µM
Sequence of Serine/threonine-protein kinase 32A (Homo sapiens) (Q8WU08 whole entry): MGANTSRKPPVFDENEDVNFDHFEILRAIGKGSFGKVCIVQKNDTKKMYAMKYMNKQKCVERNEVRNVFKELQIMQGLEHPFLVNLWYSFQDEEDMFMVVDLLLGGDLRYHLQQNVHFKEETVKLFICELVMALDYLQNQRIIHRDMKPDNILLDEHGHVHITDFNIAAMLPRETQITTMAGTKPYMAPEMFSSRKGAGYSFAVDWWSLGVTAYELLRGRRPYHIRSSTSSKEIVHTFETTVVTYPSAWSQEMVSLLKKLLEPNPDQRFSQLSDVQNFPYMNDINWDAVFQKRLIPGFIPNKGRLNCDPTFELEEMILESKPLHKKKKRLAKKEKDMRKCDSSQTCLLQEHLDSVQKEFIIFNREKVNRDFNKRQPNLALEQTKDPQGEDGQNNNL

Sequence of Vascular endothelial growth factor receptor 3 (P35916 whole entry): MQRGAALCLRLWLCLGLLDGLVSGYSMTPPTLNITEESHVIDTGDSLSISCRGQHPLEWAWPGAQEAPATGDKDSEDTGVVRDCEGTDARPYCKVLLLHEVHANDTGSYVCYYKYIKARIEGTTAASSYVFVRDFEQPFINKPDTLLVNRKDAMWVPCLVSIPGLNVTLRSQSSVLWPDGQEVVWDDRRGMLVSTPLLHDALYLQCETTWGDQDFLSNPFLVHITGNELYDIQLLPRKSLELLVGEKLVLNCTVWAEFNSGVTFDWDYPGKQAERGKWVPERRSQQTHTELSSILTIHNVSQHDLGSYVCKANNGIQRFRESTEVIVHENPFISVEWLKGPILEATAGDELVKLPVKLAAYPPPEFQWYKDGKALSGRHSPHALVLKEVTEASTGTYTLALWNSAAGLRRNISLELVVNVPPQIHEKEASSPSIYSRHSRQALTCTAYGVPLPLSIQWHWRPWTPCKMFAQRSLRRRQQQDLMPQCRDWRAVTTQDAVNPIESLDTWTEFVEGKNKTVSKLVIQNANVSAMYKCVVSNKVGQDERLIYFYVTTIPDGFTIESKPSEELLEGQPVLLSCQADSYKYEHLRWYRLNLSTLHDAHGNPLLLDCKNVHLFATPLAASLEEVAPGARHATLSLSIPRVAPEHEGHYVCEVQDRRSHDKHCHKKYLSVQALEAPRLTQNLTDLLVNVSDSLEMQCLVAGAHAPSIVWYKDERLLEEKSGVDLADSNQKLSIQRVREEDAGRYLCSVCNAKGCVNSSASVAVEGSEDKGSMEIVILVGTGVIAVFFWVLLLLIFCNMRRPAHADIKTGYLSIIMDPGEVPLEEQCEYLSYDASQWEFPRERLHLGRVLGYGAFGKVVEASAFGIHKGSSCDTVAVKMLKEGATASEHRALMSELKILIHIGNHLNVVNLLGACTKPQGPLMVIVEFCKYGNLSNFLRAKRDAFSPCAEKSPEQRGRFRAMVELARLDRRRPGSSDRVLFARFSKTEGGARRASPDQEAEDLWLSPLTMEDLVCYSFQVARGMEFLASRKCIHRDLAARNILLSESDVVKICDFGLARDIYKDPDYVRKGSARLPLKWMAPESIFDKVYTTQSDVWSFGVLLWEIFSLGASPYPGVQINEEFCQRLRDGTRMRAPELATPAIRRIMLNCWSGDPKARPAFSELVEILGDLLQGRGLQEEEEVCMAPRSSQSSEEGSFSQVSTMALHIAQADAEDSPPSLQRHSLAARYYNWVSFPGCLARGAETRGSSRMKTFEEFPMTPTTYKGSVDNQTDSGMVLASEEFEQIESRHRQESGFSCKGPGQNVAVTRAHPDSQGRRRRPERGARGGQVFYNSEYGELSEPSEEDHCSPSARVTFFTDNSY
Sequence of AP2-associated protein kinase 1 (Q2M2I8 whole entry, looked up, canonical isoform): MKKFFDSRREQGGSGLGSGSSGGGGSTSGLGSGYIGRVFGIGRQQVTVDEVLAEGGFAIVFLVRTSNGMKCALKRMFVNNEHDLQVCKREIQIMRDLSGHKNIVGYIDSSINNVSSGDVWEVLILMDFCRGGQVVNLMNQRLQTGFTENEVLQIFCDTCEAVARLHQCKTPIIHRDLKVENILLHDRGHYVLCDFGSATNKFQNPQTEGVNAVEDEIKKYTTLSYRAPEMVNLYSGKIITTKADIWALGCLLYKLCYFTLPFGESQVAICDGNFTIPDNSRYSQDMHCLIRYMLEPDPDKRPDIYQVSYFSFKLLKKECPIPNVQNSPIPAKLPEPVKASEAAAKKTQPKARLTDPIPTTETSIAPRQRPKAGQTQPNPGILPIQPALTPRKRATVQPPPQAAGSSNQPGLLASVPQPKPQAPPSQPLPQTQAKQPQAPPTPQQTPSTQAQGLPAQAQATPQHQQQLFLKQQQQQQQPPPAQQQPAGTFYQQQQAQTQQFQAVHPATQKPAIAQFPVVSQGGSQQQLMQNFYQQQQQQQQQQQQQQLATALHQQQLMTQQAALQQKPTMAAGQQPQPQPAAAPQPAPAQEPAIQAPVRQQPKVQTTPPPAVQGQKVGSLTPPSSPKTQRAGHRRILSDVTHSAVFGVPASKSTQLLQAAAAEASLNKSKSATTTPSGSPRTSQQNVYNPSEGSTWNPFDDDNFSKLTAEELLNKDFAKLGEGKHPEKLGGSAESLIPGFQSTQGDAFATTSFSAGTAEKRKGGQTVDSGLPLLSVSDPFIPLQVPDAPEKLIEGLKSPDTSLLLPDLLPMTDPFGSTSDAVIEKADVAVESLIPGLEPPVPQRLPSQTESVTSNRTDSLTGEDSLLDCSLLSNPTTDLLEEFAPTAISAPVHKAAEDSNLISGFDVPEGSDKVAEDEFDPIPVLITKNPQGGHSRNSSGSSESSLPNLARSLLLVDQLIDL
Sequence of Cannabinoid receptor 1 (P21554 whole entry): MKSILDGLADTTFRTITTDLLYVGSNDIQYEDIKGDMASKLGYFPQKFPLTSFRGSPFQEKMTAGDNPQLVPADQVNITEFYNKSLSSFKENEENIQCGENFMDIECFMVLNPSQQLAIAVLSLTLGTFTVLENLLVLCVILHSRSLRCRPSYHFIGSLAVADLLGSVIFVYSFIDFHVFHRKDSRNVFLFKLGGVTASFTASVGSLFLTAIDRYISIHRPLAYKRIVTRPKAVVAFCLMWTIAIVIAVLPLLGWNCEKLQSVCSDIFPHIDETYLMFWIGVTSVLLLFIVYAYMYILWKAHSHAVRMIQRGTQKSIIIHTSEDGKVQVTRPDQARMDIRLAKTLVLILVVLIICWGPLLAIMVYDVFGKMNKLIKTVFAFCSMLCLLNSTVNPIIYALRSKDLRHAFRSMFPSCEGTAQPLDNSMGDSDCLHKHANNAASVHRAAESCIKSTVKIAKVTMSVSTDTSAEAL
Sequence of Inhibitor of nuclear factor kappa-B kinase subunit alpha (O15111 whole entry): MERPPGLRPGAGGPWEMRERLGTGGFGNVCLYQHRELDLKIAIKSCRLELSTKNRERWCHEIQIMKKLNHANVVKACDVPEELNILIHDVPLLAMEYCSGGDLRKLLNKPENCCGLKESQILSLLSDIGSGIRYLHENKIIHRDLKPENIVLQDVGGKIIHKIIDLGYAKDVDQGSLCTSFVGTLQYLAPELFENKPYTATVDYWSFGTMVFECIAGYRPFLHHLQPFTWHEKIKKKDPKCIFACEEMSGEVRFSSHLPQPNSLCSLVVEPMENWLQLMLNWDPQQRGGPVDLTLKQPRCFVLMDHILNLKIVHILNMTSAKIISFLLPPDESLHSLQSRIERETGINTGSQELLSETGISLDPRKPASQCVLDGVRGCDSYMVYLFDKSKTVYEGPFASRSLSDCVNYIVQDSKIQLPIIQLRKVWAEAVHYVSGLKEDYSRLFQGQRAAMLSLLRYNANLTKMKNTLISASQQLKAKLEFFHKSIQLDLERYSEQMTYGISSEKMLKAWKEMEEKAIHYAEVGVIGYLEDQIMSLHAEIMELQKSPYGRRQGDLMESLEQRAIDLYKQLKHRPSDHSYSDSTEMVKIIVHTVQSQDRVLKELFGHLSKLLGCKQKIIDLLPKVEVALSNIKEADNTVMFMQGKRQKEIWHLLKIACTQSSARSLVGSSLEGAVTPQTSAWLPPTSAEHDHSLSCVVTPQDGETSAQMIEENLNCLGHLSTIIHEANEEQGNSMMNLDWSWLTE
Sequence of Protein-tyrosine kinase 2-beta (Homo sapiens) (Q14289 whole entry, looked up): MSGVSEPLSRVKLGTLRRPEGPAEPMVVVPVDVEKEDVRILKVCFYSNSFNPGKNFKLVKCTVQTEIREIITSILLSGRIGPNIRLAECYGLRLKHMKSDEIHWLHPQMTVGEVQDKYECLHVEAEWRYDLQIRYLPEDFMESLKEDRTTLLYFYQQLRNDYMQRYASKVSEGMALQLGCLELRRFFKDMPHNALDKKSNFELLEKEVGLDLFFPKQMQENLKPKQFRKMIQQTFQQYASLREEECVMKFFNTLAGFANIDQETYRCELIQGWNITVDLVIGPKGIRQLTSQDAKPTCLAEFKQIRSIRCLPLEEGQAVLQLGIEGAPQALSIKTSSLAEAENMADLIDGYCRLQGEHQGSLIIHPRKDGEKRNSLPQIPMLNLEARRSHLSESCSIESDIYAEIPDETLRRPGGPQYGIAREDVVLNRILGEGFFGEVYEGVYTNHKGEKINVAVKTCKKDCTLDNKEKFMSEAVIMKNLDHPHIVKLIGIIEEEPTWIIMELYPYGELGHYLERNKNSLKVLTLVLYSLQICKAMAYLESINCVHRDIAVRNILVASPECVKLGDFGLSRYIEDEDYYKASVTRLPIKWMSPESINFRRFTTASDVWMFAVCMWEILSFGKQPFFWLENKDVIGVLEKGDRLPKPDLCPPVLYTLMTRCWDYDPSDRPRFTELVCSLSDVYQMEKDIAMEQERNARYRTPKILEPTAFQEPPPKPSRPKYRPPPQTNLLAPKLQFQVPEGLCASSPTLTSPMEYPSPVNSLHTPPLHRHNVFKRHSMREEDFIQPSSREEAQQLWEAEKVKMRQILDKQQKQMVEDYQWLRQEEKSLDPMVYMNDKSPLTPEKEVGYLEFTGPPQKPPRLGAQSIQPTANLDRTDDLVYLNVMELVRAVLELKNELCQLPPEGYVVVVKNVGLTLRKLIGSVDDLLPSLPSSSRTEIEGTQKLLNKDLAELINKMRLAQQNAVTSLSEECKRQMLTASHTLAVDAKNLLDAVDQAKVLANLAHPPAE

SMILES: C=CC(=O)Nc1cc(-n2c(=O)ccc3cnc4ccc(-c5ccc(NS(C)(=O)=O)cc5)cc4c32)ccc1C
- % of control ([1]; at 1 µM): 72%
- % of control ([1]; at 10 µM): 100%

SMILES: Cc1cc(F)c(C(=O)Nc2cccc(-c3nncn3C(C)C)n2)cc1-n1cnc(C2CC2)c1
- % of control [2]: 100%

SMILES: O=C(NOC[C@H](O)CO)c1ccc(F)c(F)c1Nc1ccc(I)cc1F
- % of control [3]: 98%

SMILES: Cc1cnc(Nc2ccc(F)cc2Cl)nc1-c1c[nH]c(C(=O)N[C@H](CO)c2cccc(Cl)c2)c1
- % of inhibition [4]: 9%

SMILES: CCC(=O)N1CC[C@H](Nc2ncnc3c2CN(c2cnc(OC)c(C(F)(F)F)c2)CC3)C1 [LENIOLISIB]
- IC50 (Cannabinoid receptor 1): > 30 µM

SMILES: CCc1cccc(CC)c1NC(=O)c1nn(C)c2c1CCc1cnc(Nc3ccc(C(=O)NC4CCN(C)CC4)cc3OC(F)(F)F)nc1-2
- IC50 [5]: > 10 µM

SMILES: CNC(=O)Nc1ccc(-c2nc(N3CC4CCC(C3)O4)c3cnn(C4CCC5(CC4)OCCO5)c3n2)cc1
- % of control [6]: 83%
- % of control [7]: 100%

SMILES: CC(C)(O)[C@H](F)CN1Cc2cc(NC(=O)c3cnn4cccnc34)c(N3CCOCC3)cc2C1=O
- dTM [8]: 2 K

SMILES: O[C@H]1CC[C@H](Nc2ncc3nc(Nc4c(F)cc(F)cc4F)n([C@H]4CCOC4)c3n2)CC1
- % of control [9]: 100%

SMILES: CN(C)CCOc1ccc(-c2nc(-c3ccncc3)c(-c3ccc4c(c3)CC/C4=N\O)[nH]2)cc1
- % of control [10]: 38%

SMILES: CCC(=O)N1CCN(c2ccc(-n3c(=O)ccc4cnc5ccc(-c6cnc7ccccc7c6)cc5c43)cc2C(F)(F)F)CC1
- % of control [11]: 24%

SMILES: CN(C)C/C=C/C(=O)Nc1ccc(C(=O)N2CCCC(Nc3ncc(Cl)c(-c4c[nH]c5ccccc45)n3)C2)cc1 (centres undefined)
- % of control [12]: 99%
